Assay results taken from patent US8623859B2, “Bradykinin B1 antagonists” (Evotec AG, priority 2008, dated 2014).
pIC50: −log10 of the molar value. Counter-ions that a name gives are not always drawn.

Molecular target: T1, human B1 (Homo sapiens, UniProt P46663)
T1 construct: host or cells: CHO-K1
T1 sequence (P46663 1-353): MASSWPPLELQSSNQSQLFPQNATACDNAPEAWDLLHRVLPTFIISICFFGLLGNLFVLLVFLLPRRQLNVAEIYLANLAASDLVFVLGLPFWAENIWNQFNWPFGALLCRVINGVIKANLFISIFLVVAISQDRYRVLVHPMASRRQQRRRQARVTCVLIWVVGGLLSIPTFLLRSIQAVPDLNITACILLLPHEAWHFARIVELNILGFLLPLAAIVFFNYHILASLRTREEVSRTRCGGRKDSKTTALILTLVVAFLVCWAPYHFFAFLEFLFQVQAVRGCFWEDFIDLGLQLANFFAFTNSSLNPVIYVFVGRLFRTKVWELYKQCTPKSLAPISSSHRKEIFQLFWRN
Test: Calcium flux assay for Bradykinin B1 antagonist, CHO-K1 cell line expressing human B1
Format: cell-based
Conditions: CHO-K1 cells expressing human B1, agonist Lys-(Des-Arg)-Bradykinin, read-out: Potency (IC50 value against human B1)
Outline: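 Inhibition of B1 agonist-evoked intracellular Ca2+ rise was followed by continuous fluorescence at 538 nm, with integrated, background-normalized signals plotted versus log compound concentration. Test compounds (eight 10-fold dilutions, triplicate, 1% DMSO final) were added 30 min at 25° C beforehand to Fluo-4AM-loaded human B1 CHO-K1 cells in pH 7.4 assay buffer.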

pIC50	Compound
6.00 to 7.00	COc1cc(C)c(S(=O)(=O)N(C)Cc2nc(C(=O)N3CCN(CCCCN(C)C)CC3)no2)c(C)c1 [Ex 322, N-{[3-({4-[4-(Dimethylamino)butyl]piperazin-1-yl}carbonyl)-1,2,4-oxadiazol-5-yl]methyl}-4-methoxy-N,2,6-trimethylbenzenesulfonamide trifluoroacetate]
6.00 to 7.00	COc1cc(C)c(S(=O)(=O)N(C)Cc2nnc(C(=O)N3CCN(CC4CCN(CC(C)(C)O)CC4)CC3)o2)c(C)c1 [Ex 266, N-({5-[(4-{[1-(2-Hydroxy-2-methylpropyl)piperidin-4-yl]methyl}piperazin-1-yl)carbonyl]-1,3,4-oxadiazol-2-yl}methyl)-4-methoxy-N,2,6-trimethylbenzenesulfonamide]
> 8.00	COc1cc(C)c(S(=O)(=O)N(Cc2nc(C(=O)N3CCN(CCN4CCCC4)CC3)co2)C2CC2)c(C)c1 [Ex 195, N-Cyclopropyl-4-methoxy-2,6-dimethyl-N-[(4-{[4-(2-pyrrolidin-1-ylethyl)piperazin-1-yl]carbonyl}-1,3-oxazol-2-yl)methyl]benzenesulfonamide trifluoroacetate]
7.00 to 8.00	CCc1cc(Br)ccc1S(=O)(=O)N(C)Cc1cc(C(=O)N2CCCN(CCCN3CCCC3)CC2)co1 [Ex 15, 4-bromo-2-ethyl-N-methyl-N-[(4-{[4-(3-pyrrolidin-1-ylpropyl)-1,4-diazepan-1-yl]carbonyl}furan-2-yl)methyl]benzenesulfonamide]
6.00 to 7.00	COc1cc(C)c(S(=O)(=O)N(C)Cc2cc(C(=O)N(C)Cc3nnc(CN4CCCC4)s3)co2)c(C)c1 [Ex 137, 5-({[(4-Methoxy-2,6-dimethylphenyl)sulfonyl](methyl)amino}methyl)-N-methyl-N-{[5-(pyrrolidin-1-ylmethyl)-1,3,4-thiadiazol-2-yl]methyl}furan-3-carboxamide]
6.00 to 7.00	COc1cc(C)c(S(=O)(=O)N(Cc2noc(C(=O)N3CCN(CCCCN(C)C)CC3)n2)C2CC2)c(C)c1 [Ex 320, N-Cyclopropyl-N-{[5-({4-[4-(dimethylamino)butyl]piperazin-1-yl}carbonyl)-1,2,4-oxadiazol-3-yl]methyl}-4-methoxy-2,6-dimethylbenzenesulfonamide trifluoroacetate]
6.00 to 7.00	COc1cc(C)c(S(=O)(=O)N(C)Cc2cc(C(=O)N3CCN(Cc4ccncc4)CC3)co2)c(C)c1 [Ex 34, 4-methoxy-N,2,6-trimethyl-N-[(4-{[4-(pyridin-4-ylmethyl)piperazin-1-yl]carbonyl}furan-2-yl)methyl]benzenesulfonamide]
7.00 to 8.00	COc1cc(C)c(S(=O)(=O)N(C)Cc2cc(C(=O)N(C)Cc3ccc(CN4CCCC4)c(F)c3)co2)c(C)c1 [Ex 157, N-[3-Fluoro-4-(pyrrolidin-1-ylmethyl)benzyl]-5-({[(4-methoxy-2,6-dimethylphenyl)sulfonyl](methyl)amino}methyl)-N-methylfuran-3-carboxamide trifluoroacetate]

Continued, compound first:

Compound	pIC50
COc1cc(C)c(S(=O)(=O)N(Cc2nc(C(=O)N(C)C3CCC(N4CCN(C)CC4)CC3)co2)C2CC2)c(C)c1 (centres unmarked) [Ex 243, 2-({Cyclopropyl[(4-methoxy-2,6-dimethylphenyl)sulfonyl]amino}methyl)-N-methyl-N-[4-(4-methylpiperazin-1-yl)cyclohexyl]-1,3-oxazole-4-carboxamide trifluoroacetate]	7.00 to 8.00
COc1cc(C)c(S(=O)(=O)N(Cc2nc(C(=O)N3CCN(CC4CCN(C(=O)OC(C)(C)C)CC4)CC3)co2)C2CC2)c(C)c1 [Ex 238, trifluoroacetate]	6.00 to 7.00
COc1cc(C)c(S(=O)(=O)N(C)Cc2nc(C(=O)N(C)Cc3cccc(CN4CCCC4)c3)no2)c(C)c1 [Ex 324, 5-({[(4-Methoxy-2,6-dimethylphenyl)sulfonyl](methyl)amino}methyl)-N-methyl-N-[3-(pyrrolidin-1-ylmethyl)benzyl]-1,2,4-oxadiazole-3-carboxamide trifluoroacetate]	7.00 to 8.00
COc1cc(C)c(S(=O)(=O)N(Cc2nnc(C(=O)N3CCN(CC4CCN(C)CC4)CC3)o2)C2CC2)c(C)c1 [Ex 272, N-Cyclopropyl-4-methoxy-2,6-dimethyl-N-{[5-({4-[(1-methylpiperidin-4-yl)methyl]piperazin-1-yl}carbonyl)-1,3,4-oxadiazol-2-yl]methyl}benzenesulfonamide]	> 8.00
COc1cc(C)c(S(=O)(=O)N(Cc2nc(C(=O)N3CCC(OC4CCCN(C)C4)CC3)co2)C2CC2)c(C)c1 (centres unmarked) [Ex 248, N-Cyclopropyl-4-methoxy-2,6-dimethyl-N-{[4-({4-[(1-methylpiperidin-3-yl)oxy]piperidin-1-yl}carbonyl)-1,3-oxazol-2-yl]methyl}benzenesulfonamide trifluoroacetate]	7.00 to 8.00
COc1cc(C)c(S(=O)(=O)N(C)Cc2nnc(C(=O)N3CCN(Cc4cccnc4N)CC3)o2)c(C)c1 [Ex 295, N-{[5-({4-[(2-Aminopyridin-3-yl)methyl]piperazin-1-yl}carbonyl)-1,3,4-oxadiazol-2-yl]methyl}-4-methoxy-N,2,6-trimethylbenzenesulfonamide]	> 8.00
COc1cc(C)c(S(=O)(=O)N(C)Cc2cc(C(=O)N(C)CCc3ccc(C4=NCCN4)cc3)co2)c(C)c1 [Ex 5, N-{2-[4-(4,5-dihydro-1H-imidazol-2-yl)phenyl]ethyl}-5-({[(4-methoxy-2,6-dimethylphenyl)sulfonyl](methyl)amino}methyl)-N-methylfuran-3-carboxamide]	> 8.00
COc1cc(C)c(S(=O)(=O)N(Cc2nc(C(=O)N3CCC(N(C)C4CCN(C)CC4)C3)co2)C2CC2)c(C)c1 (centres unmarked) [Ex 208, N-Cyclopropyl-4-methoxy-2,6-dimethyl-N-{[4-({3-[methyl(1-methylpiperidin-4-yl)amino]pyrrolidin-1-yl}carbonyl)-1,3-oxazol-2-yl]methyl}benzenesulfonamide trifluoroacetate]	6.00 to 7.00
COc1cc(C)c(S(=O)(=O)N(Cc2nc(C(=O)N(C)Cc3ccc(CN4CC(O)C4)cc3)co2)C2CC2)c(C)c1 [Ex 188, 2-({Cyclopropyl[(4-methoxy-2,6-dimethylphenyl)sulfonyl]amino}methyl)-N-{4-[(3-hydroxyazetidin-1-yl)methyl]benzyl}-N-methyl-1,3-oxazole-4-carboxamide]	7.00 to 8.00
COc1cc(C)c(S(=O)(=O)N(C)Cc2cc(C(=O)N(C)Cc3ccc(-n4ccnc4)cc3)co2)c(C)c1 [Ex 2, N-[4-(1H-imidazol-1-yl)benzyl]-5-({[(4-methoxy-2,6-dimethylphenyl)sulfonyl](methyl)amino}methyl)-N-methylfuran-3-carboxamide]	6.00 to 7.00
COc1cc(C)c(S(=O)(=O)N(Cc2nnc(C(=O)N3CCN(CC4CCCN(C)C4)CC3)o2)C2CC2)c(C)c1 (centres unmarked) [Ex 275, N-Cyclopropyl-4-methoxy-2,6-dimethyl-N-{[5-({4-[(1-methylpiperidin-3-yl)methyl]piperazin-1-yl}carbonyl)-1,3,4-oxadiazol-2-yl]methyl}benzenesulfonamide]	7.00 to 8.00
COc1cc(C)c(S(=O)(=O)N(Cc2cc(C(=O)N(C)Cc3ccc(CN4CCC(OC)C4)cc3)co2)C2CC2)c(C)c1 (centres unmarked) [Ex 145, 5-({Cyclopropyl[(4-methoxy-2,6-dimethylphenyl)sulfonyl]amino}methyl)-N-{4-[(3-methoxypyrrolidin-1-yl)methyl]benzyl}-N-methylfuran-3-carboxamide]	7.00 to 8.00
COc1cc(C)c(S(=O)(=O)N(C)Cc2nc(C(=O)N(C)Cc3ccc(CN4CCC(O)C4)cc3)co2)c(C)c1 (centres unmarked) [Ex 178, N-{4-[(3-Hydroxypyrrolidin-1-yl)methyl]benzyl}-2-({[(4-methoxy-2,6-dimethylphenyl)sulfonyl](methyl)amino}methyl)-N-methyl-1,3-oxazole-4-carboxamide]	> 8.00
COc1cc(C)c(S(=O)(=O)N(C)Cc2nnc(C(=O)N3CCN(Cc4ccc(OC)nc4)CC3)o2)c(C)c1 [Ex 260, 4-Methoxy-N-{[5-({4-[(6-methoxypyridin-3-yl)methyl]piperazin-1-yl}carbonyl)-1,3,4-oxadiazol-2-yl]methyl}-N,2,6-trimethylbenzenesulfonamide trifluoroacetate]	7.00 to 8.00
COc1cc(C)c(S(=O)(=O)N(C)Cc2nnc(C(=O)N3CCN(Cc4ccnc(C)c4)CC3)o2)c(C)c1 [Ex 294, 4-Methoxy-N,2,6-trimethyl-N-{[5-({4-[(2-methylpyridin-4-yl)methyl]piperazin-1-yl}carbonyl)-1,3,4-oxadiazol-2-yl]methyl}benzenesulfonamide]	7.00 to 8.00
COc1cc(C)c(S(=O)(=O)N(C)Cc2cc(C(=O)NCc3ccc(Nc4nccc(N)n4)cc3)co2)c(C)c1 [Ex 14, N-{4-[(4-aminopyrimidin-2-yl)amino]benzyl}-5-({[(4-methoxy-2,6-dimethylphenyl)sulfonyl](methyl)amino}methyl)furan-3-carboxamide]	6.00 to 7.00
COc1cc(C)c(S(=O)(=O)N(Cc2cc(C(=O)N(C)CCc3ccc(C4=NCCN4)cc3)co2)C2CC2)c(C)c1 [Ex 84, 5-({cyclopropyl[(4-methoxy-2,6-dimethylphenyl)sulfonyl]amino}methyl)-N-{2-[4-(4,5-dihydro-1H-imidazol-2-yl)phenyl]ethyl}-N-methylfuran-3-carboxamide trifluoroacetate]	> 8.00
COc1cc(C)c(S(=O)(=O)N(C)Cc2cc(C(=O)N(C)Cc3ccc(CN4CCCC(O)C4)cc3)co2)c(C)c1 (centres unmarked) [Ex 134, N-{4-[(3-Hydroxypiperidin-1-yl)methyl]benzyl}-5-({[(4-methoxy-2,6-dimethylphenyl)sulfonyl](methyl)amino}methyl)-N-methylfuran-3-carboxamide]	> 8.00
